Test results taken from patent US20250144095A1, “COMPOSITIONS AND METHODS FOR TREATMENT OF CONNECTIVE TISSUE DISORDERS” (The Johns Hopkins University, priority 2022, published 2025).

Legend:
Type in all cases: in vivo
Endothelin-1 = assay: Immunofluorescence of Endothelin-1 in descending thoracic aorta of treated Col3a1^G938D/+ mice; details: descending thoracic aorta of 8-week-old Col3a1^G938D/+ mice, treated from weaning; cobimetinib est. 2 mg/kg/day, ruboxistaurin est. 8 mg/kg/day
Experimental: Mice were euthanized by isoflurane inhalation and the left common iliac artery was transected to allow for drainage. PBS (pH 7.4) and PBS containing 4% paraformaldehyde (PFA) was flushed through the left ventricle. The heart and thoracic aorta were removed en bloc and fixed in 4% PFA overnight at 4° C. Aortas were submitted for paraffin fixation and longitudinal sections 5 micrometers thick were mounted on glass slides and stained with hematoxylin & eosin (HE), Verhoeff-van Giesen (VVG), Masson's Trichrome, or Picrosirius red (PSR). Slides were imaged at 20× and 40× magnification using a Nikon Eclipse E400 microscope. Collagen content was determined by polarized PSR intensity (31) and elastin breaks were counted by a researcher blinded to genotype and treatment arm using only VVG stained sections where elastin breaks were clearly visualized.
For immunofluorescence, slides were incubated in antigen retrieval solution for 1 minute in a pressure cooker. Sections were incubated with 1% BSA for one hour at room temperature. Primary antibodies were diluted at 1:200 in 1% BSA and incubated overnight at 4° C. Three consecutive washes were performed prior to incubation with anti-rabbit secondary antibodies conjugated to Alexa Fluor 488 (Invitrogen A-11039) or anti-mouse secondary antibodies conjugated to Alexa Fluor 594 (Invitrogen R37119) at 1:200 for 1 hour at room temperature. […]

p-PKC = assay: Western blot of p-PKC in proximal descending thoracic aorta of treated Col3a1^G938D mice; details: normalized to β-actin, vs untreated
Experimental: (§1) Protein was extracted using an automatic bead homogenizer in conjunction with a Protein Extraction Kit (Full Moon Biosystems). All protein lysis buffers contained both PhosSTOP and cOmplete™, Mini, EDTA-free Protease Inhibitor Cocktail (Roche). Western blotting was performed using LI-COR buffer and species appropriate secondary antibodies conjugated to IR-dye700 or IRdye-800 (LI-COR Biosciences), according to the manufacturer's guidelines and analyzed using LI-COR Odyssey. The following primary antibodies were used: anti-β-Actin (8H10D10) (Cell Signaling Technology, 3700), anti-phospho ERK1/2 (Cell Signaling Technology, 4370), anti-PKCβ (phospho S660) (Abcam, 75837), anti-Endothelin-1 (TR.ET.48.5) (Thermo Fisher Scientific, MA3005), anti-Endothelin-1 (TR.ET.48.5) (Abcam, 2786).
(§2) pERK and pPKC amounts were normalized to j-actin as opposed to total ERK or total PKC for a variety of practical reasons. First, it is the amount of phosphorylated protein, and not the ratio of phosphorylated to unphosphorylated protein, that drives cellular responses. Second, we are unaware of any pathophysiologic context where the amount of unphosphorylated protein is limiting (i.e. always in excess). […]

p-ERK1/2 = assay: Western blot of p-ERK1/2 in proximal descending thoracic aorta of treated Col3a1^G938D mice; details: normalized to β-actin, vs untreated
Experimental: as §1, §2

Col3a1^G938D mice = assay: Survival drug trial in Col3a1^G938D/+ (vEDS) mice, Kaplan-Meier
Description: All mice were maintained on a C57BL/6J background (#000664, The Jackson Laboratory). ET1^fl/fl f mice were obtained from RIKEN (RBRC06322). Tie2-Cre mice and Sm22-Cre mice were obtained from the Jackson Laboratory (#004128. #017491). All mice were genotyped according to published protocols.
Restriction enzymes were used to detect the presence or absence of the Col3a1 mutation as previously described. The G938D mutation leads to the gain of a BamHI cut site (R3136S, New England Biolabs). All mice found dead were assessed for cause of death by necropsy, noting in particular hemothorax and hemoperitoneum.
For drug trials in the Col3a1^G938D/+ mice, mice were initiated on medication at weaning and continued until 2 months of age. Cobimetinib (GDC-0973/RO551404, Active Biochem) was dissolved in drinking water and filtered to reach a final concentration of 0.02 g/L giving an estimated dose of 2 mg/kg/day. Ruboxistaurin (LY333531 HCl, Selleck Chemicals) was mixed with powdered food (LabDiet) to give a concentration of 0.1 mg/g giving an estimated dose of 8 mg/kg/day. […]
By design, each treatment trial included contemporaneous control (untreated) mice. […] All p-values calculated by log-rank comparisons (using Prism) are reported as unadjusted p-values, given the interdependence of many of the drug mechanisms. […]

Compound | ET1 protein levels in aorta (in words) (Endothelin-1) | p-PKC level in aorta (in words) (p-PKC) | p-ERK1/2 level in aorta (in words) (p-ERK1/2) | effect on survival (in words) (Col3a1^G938D mice; Col3a1^G938D/+ mice vs untreated, Log-Rank (Mantel-Cox)) | mice surviving to the end of the trial (Col3a1^G938D mice; vEDS (Col3a1^G938D) mice, drug from weaning (P21), followed 45 days, in food, estimated 100 mg/kg/day, untreated 46%)
O=C(c1ccc(F)c(F)c1Nc1ccc(I)cc1F)N1CC(O)([C@@H]2CCCCN2)C1 [cobimetinib, Cobimetinib] | attenuated | – | – | – | –
COc1ccccc1Oc1c(NS(=O)(=O)c2ccc(C(C)(C)C)cc2)nc(-c2ncccn2)nc1OCCO [bosentan, Bosentan] | – | marked downregulation | not p-ERK1/2 | moderately but significantly improved survival | 70%
CN(C)C[C@@H]1CCn2cc(c3ccccc32)C2=C(C(=O)NC2=O)c2cn(c3ccccc23)CCO1 [ruboxistaurin, Ruboxistaurin] | attenuated | – | – | – | –
